Results reported in US20220274947A1, “NOVEL HETEROARYL-TRIAZOLE COMPOUNDS AS PESTICIDES” (Bayer Aktiengesellschaft, priority 2019, published 2022).

Assays:
Type in all cases: in vivo
[1] = tested on: Diabrotica balteata; test: Diabrotica balteata spray test; conditions: 168 h, wheat seeds, larvae, after 7 days, read-out: activity (efficacy: 100% means all seedlings have grown up like in the untreated, uninfected control); for pest or weed control at 32 µg/disc, 100 g/ha: application rate 100 g/ha (=32 μg/well); for pest or weed control at 160 µg/disc, 500 g/ha: application rate 500 g/ha (=160 μg/well)
Method: Diabrotica balteata—Spray Test Solvent: 78.0 parts by weight of acetone • • 1.5 parts by weight of dimethylformamide Emulsifier: alkylarylpolyglycol ether
(§1) To produce a suitable preparation of active compound, 1 part by weight of active compound is mixed with the stated amount of solvent, and the concentrate is diluted with water, containing an emulsifier concentration of 1000 ppm, to the desired concentration. Further test concentrations are prepared by dilution with emulsifier containing water.
Soaked wheat seeds (Triticum aestivum) are placed in a multiple well plate filled with agar and some water and are incubated for 1 day to germinate (5 seeds per well). The germinated wheat seeds are sprayed with a test solution containing the desired concentration of the active ingredient. Afterwards each unit is infected with 10-20 larvae of the banded cucumber beetle (Diabrotica balteata).
After 7 days efficacy in % is determined. 100% means all the seedlings have grown up like in the untreated, uninfected control; 0% means none of the seedlings have grown.

[2] = tested on: Ctenocephalides felis; test: Ctenocephalides felis oral test (CTECFE Oral); conditions: 48 h, read-out: activity (mortality)
Method: Ctenocephalides felis—Oral Test (CTECFE Oral) Solvent: dimethyl sulfoxide
To produce a suitable preparation of active compound, 10 mg of active compound are dissolved in 0.5 mL solvent, and the concentrate is diluted with cattle blood to the desired concentration.
Approximately 20 adult unfed cat fleas (Ctenocephalides felis) are placed in flea chambers. The blood chamber, sealed with parafilm on the bottom, are filled with cattle blood supplied with compound solution and placed on the gauze covered top of the flea chamber, so that the fleas are able to suck the blood. The blood chamber is heated to 37° C. whereas the flea chamber is kept at room temperature.
After 2 days mortality in % is determined. 100% means all the fleas have been killed; 0% means none of the fleas have been killed.

[3] = tested on: Spodoptera frugiperda; test: Spodoptera frugiperda spray test; conditions: in Zea mays, 168 h, read-out: activity (mortality)
Method: Spodoptera Fruaiperda—Spray Test
Solvent: 78.0 parts by weight acetone • 1.5 parts by weight dimethylformamide Emulsifier: alkylarylpolyglycol ether
as §1, with “solvents” for “solvent,”, “and” for “and the concentrate”
Maize (Zea mays) leaf sections are sprayed with a preparation of the active ingredient of the desired concentration. Once dry, the leaf sections are infested with fall armyworm larvae (Spodoptera frugiperda).
After 7 days mortality in % is determined. 100% means all caterpillars have been killed and 0% means none of the caterpillars have been killed.

[4] = tested on: Rhipicephalus microplus; test: Rhipicephalus (Boophilus) microplus in-vitro contact test, larval cattle tick, strain Parkhurst (BOOPMI Cont); conditions: application rate 5 μg/cm^2 (=500 g/ha), tick larvae, after 48 hours, read-out: activity (efficacy: 100% means all larvae are dead or moribund)
Method: Rhipicephalus (Boophilus) Microplus—In-Vitro Contact Tests Larval Cattle Tick (Strain Parkhurst, Resistant Against Synthetic Pyrethroids) (BOOPMI Cont)
9 mg compound is solved in 1 mL acetone and diluted with acetone to the desired concentration. 250 μL of the test solution is filled in 25 mL glass test tubes and homogeneously distributed on the inner walls by rotation and tilting on a shaking device (2 h at 30 rpm). With a compound concentration of 900 ppm, an inner surface of 44.7 cm^2 and a homogeneous distribution, a dose of 5 μg/cm^2 is achieved.
After the solvent has evaporated, each test tube is filled with 20-50 cattle tick larvae (Rhipicephalus microplus), closed with a perforated lid and incubated in a horizontal position at 85% relative humidity and 27° C. in an incubator. After 48 hours efficacy is determined. The larvae are patted on the ground of the tubes and negative geotactic behavior is recorded.
An efficacy of 100% means all larvae are dead or moribund; 0% means no larvae are dead or moribund.

[5] = tested on: Rhipicephalus microplus; test: Rhipicephalus (Boophilus) microplus injection test (BOOPMI Inj); conditions: 168 h, injection into adult engorged female ticks, egg deposition after 7 days, read-out: activity (efficacy: 100% means all eggs are infertile); for pest or weed control at 0.004 mg: application rate 4 μg/tick; for pest or weed control at 0.02 mg: application rate 20 μg/tick
Method: Rhipicephalus (Boophilus) Microplus—Injection Test (BOOPMI Inj)
Solvent: dimethyl sulfoxide
To produce a suitable preparation of active compound, 10 mg of active compound are dissolved in 0.5 mL solvent, and the concentrate is diluted with solvent to the desired concentration.
Five adult engorged female ticks (Rhipicephalus microplus) are injected with 1 μL compound solution into the abdomen. The ticks are transferred into replica plates and incubated in a climate chamber.
After 7 days egg deposition of fertile eggs is monitored. Eggs where fertility is not visible are stored in a climate chamber till hatching after about 42 days. An efficacy of 100% means all eggs are infertile; 0% means all eggs are fertile.

[6] = tested on: Rhipicephalus sanguineus; test: Rhipicephalus sanguineus in-vitro contact test, adult brown dog ticks (RHIPSA Cont); conditions: 48 h, after 48 hours, read-out: activity (efficacy: 100% means all ticks are dead or moribund); for pest or weed control at 1 µg/cm2, 100 g/ha: application rate 1 μg/cm^2 (=100 g/ha); for pest or weed control at 5 µg/cm2, 500 g/ha: application rate 5 μg/cm^2 (=500 g/ha)
Method: Rhipicephalus sanguineus-In-Vitro Contact Tests with Adult Brown Dog Ticks ([…] Cont) 9 mg compound is solved in 1 mL acetone and diluted with acetone to the desired concentration. 250 μL of the test solution is filled in 25 mL glass test tubes and homogeneously distributed on the inner walls by rotation and tilting on a shaking device (2 h at 30 rpm). […] After 48 hours efficacy is determined. The ticks are patted on the ground of the tubes and are incubated on a heating plate at 45-50° C. for at most 5 minutes. Immotile or uncoordinated moving ticks, which are not able to escape the heat by climbing upwards, are marked as dead or moribund.

[7] = tested on: Musca domestica strain WHO—N; test: Musca domestica test (MUSCDO surface treatment & contact assay); conditions: surface concentration 4 mg/m^2, glazed tile, exposure 30 minutes, 24 hours after contact, read-out: efficacy (mortality)
Method: Musca domestica Test (MUSCDO Surface Treatment & Contact Assay) Solvent: Aceton+2000 ppm rapeseed oil methyl ester (RME)
(§2) In order to produce a sufficient, active ingredient containing solution it is necessary to solve the test compound in the solvent-mix (acetone at 2 mg/ml/RME 2000 ppm). This solution is pipetted onto a glazed tile and after evaporation of the acetone, adult flies of the species Musca domestica strain WHO—N are placed onto the dried surface. The exposure time is 30 minutes. Mortality in percent (%) is determined 24 hours after contact of the insects to the treated surface. 100% mortality means that all tested insects are dead, whereas 0% means that no insect died.

[8] = tested on: Myzus persicae; test: Myzus persicae oral test; conditions: 120 h, read-out: activity (mortality)
Method: Myzus persicae—Oral Test Solvent: 100 parts by weight acetone
To produce a suitable preparation of active compound, 1 part by weight of active compound is mixed with the stated amount of solvent, and the concentrate is diluted with water to the desired concentration.
50 μL compound solution is filled in microtiter plates and 150 μL IPL41 insect medium (33%+15% sugar) is added to obtain a total volume of 200 μL per well. Afterwards the plates are sealed with parafilm through which a mixed population of the green peach aphid (Myzus persicae) can suck on the compound preparation.
After 5 days mortality in % is determined. 100% means all aphids have been killed and 0% means none of the aphids have been killed.

[9] = tested on: Aedes aegypti strain MONHEIM; test: Aedes aegypti test (AEDSAE surface treatment & contact assay); conditions: exposure 30 minutes, 24 hours after contact, read-out: efficacy (mortality)
Method: Aedes aegypti Test (AEDSAE Surface Treatment & Contact Assay) Solvent: Aceton+2000 ppm rapeseed oil methyl ester (RME)
as §2, with “mosquitoes” for “flies”, “Aedes aegypti” for “Musca domestica”, “MONHEIM” for “WHO—N”

SMILES	pest or weed control at 32 µg/disc, 100 g/ha [1] [%]	pest or weed control at 160 µg/disc, 500 g/ha [1] [%]	mortality at 100 ppm [2] [%]	mortality at 100 g/ha [3] [%]	mortality at 500 g/ha [3] [%]	pest or weed control at 5 µg/cm2 [4] [%]	pest or weed control at 0.004 mg [5] [%]	pest or weed control at 0.02 mg [5] [%]	pest or weed control at 1 µg/cm2, 100 g/ha [6] [%]	pest or weed control at 5 µg/cm2, 500 g/ha [6] [%]	mortality at 4 mg/m2 [7] [%]	mortality at 4 ppm [8] [%]	mortality at 4 mg/m2 ([9]; surface concentration 4 mg/m^2, glazed tile) [%]	mortality at 20 mg/m2 ([9]; surface concentration 20 mg/m^2, glazed tile) [%]	mortality at 0.8 ppm [8] [%]
C[C@H](NC(=O)c1cc(Cl)cc(Cl)c1)c1nc(C2CC2)nn1-c1ccc(C#N)cn1 [I-5]	100	100	100	100	100	100	100	100	–	–	–	–	–	–	–
CC(C)c1nc([C@H](C)NC(=O)c2cc(Br)cc(C(F)(F)F)c2)n(-c2ccc(C#N)cn2)n1 [I-21]	80	–	100	100	–	100	100	100	100	100	–	–	–	–	–
CC(C)c1nc([C@H](C)NC(=O)c2cc(Br)cc(C#N)c2)n(-c2ccc(C#N)cn2)n1 [I-25]	100	–	100	100	–	100	100	100	100	80	–	–	–	–	–
C[C@H](NC(=O)c1cc(Cl)cc(OC(F)(F)F)c1)c1nc(C2CC2)nn1-c1ccc(C#N)cn1 [I-33]	100	–	–	–	–	100	100	100	–	–	80 to 100	–	–	–	–
C[C@H](NC(=O)c1cc(Br)cc(Br)c1)c1nc(C2CC2)nn1-c1ccc(C#N)cn1 [I-36]	100	–	90	100	–	100	100	–	100	–	–	–	–	–	–
C[C@H](NC(=O)c1cc(Br)cc(OC(F)(F)F)c1)c1nc(C2CC2)nn1-c1ccc(C#N)cn1 [I-41]	–	–	100	100	–	100	100	–	–	–	–	–	–	–	–
CC(NC(=O)c1cncc(C(F)(F)F)c1)c1nc(Br)nn1-c1ccc(C#N)cn1 (centres unmarked) [I-50]	–	–	–	–	–	100	–	–	–	–	–	100	–	–	–
COc1nc([C@H](C)NC(=O)c2cc(OC(F)(F)F)cc(C(F)F)c2)n(-c2ccc(C#N)cn2)n1 [I-63]	100	–	–	100	–	100	–	–	–	–	–	100	–	–	–
C[C@H](NC(=O)c1cc(Cl)cc(OC(F)(F)F)c1)c1ncnn1-c1cc(NC(=O)c2ccc(F)cc2)ccn1 [II-20]	–	–	100	–	–	–	100	100	–	–	–	–	–	–	–
Cc1nc([C@H](C)NC(=O)c2cc(Cl)cc(OC(F)(F)F)c2)n(-c2cc(C#N)ccn2)n1 [II-34]	100	100	–	100	100	100	100	100	100	100	–	–	80 to 100	80 to 100	–
Cc1nc([C@H](C)NC(=O)c2cccc(Br)n2)n(-c2ccc(C#N)cn2)n1 [II-59]	–	–	90	–	–	–	100	100	80	80	–	–	–	–	–
CC[C@H](NC(=O)c1cc(Cl)cc(C(F)(F)F)c1)c1nc(C)nn1-c1ncc(OC(F)F)cn1 [II-60]	–	–	100	–	–	100	100	100	–	–	–	–	–	–	–
C[C@H](NC(=O)c1cc(C(F)(F)F)cc(C(F)(F)F)c1)c1ncnn1-c1cc(C(=O)NCC(F)(F)F)ccn1 [II-87]	100	–	–	100	–	80	–	–	–	–	–	100	–	–	–
C[C@H](NC(=O)c1cc(C(F)(F)F)cc(C(F)(F)F)c1)c1ncnn1-c1cc(C(=O)NCC#N)ccn1 [II-89]	100	–	–	–	–	80	80	–	–	–	–	100	–	–	100
